Measured values published in patent US5192766A, “N-acryloylpiperazine derivatives, their preparation and their use as PAF antagonists” (Sankyo Company, Limited, priority 1989, dated 1993).

How the values were obtained:
PAF-induced hypotension = assay: Inhibition of PAF-induced hypotension; format: in vivo, Wistar-Imamichi rats; details: Rattus norvegicus, iv, 1 min; anesthetized rats; l-C16:0 PAF 10 ng/kg i.v.; test compound i.v. cumulatively, 1 min before PAF; read-out: Inhibitory effect ID50
Protocol: Inhibition of PAF-induced hypotension
The test animals used were Wistar-Imamichi rats, each weighing from 350 to 450 g, anesthetized with Inactin (90 mg/kd, intraperitoneally).
Blood pressure was continuously measured throughout the experiment through a cannula inserted into the femoral artery. Each drug sample to be tested was intravenously injected through a cannula inserted into the femoral vein.
At first, l-C16:0 PAF was injected intravenously in amounts of 10 ng/kg at each injection at intervals of 5 minutes until the degree of the hypotensive response became constant. Then, each drug sample to be treated was intravenously injected. After one minute, the same dose of PAF was administered again. The drug sample was cumulatively administered. From its inhibition rate against the PAF-induced hypotensive effect, the 50% inhibitive dose (ID50) was determined, and is regarded as an index of PAF-antagonist activity. For administration, the PAF was dissolved in physiological saline solution containing 0.25% w/v of bovine serum albumin (BSA). The compounds under test were dissolved in dimethylformamide for use.
CV-3988 is disclosed in U.S. Pat. No. 4,408,052, and is structurally related to PAF itself.
In this Table, the compounds of the invention are identified by the number of the foregoing Example in which they were prepared.

[1] = tested on: blood platelet (PAF-induced aggregation); assay: Inhibitory effect in vitro against PAF-induced blood platelet aggregation; format: cell-based; details: Oryctolagus cuniculus, 5 min; rabbit platelet rich plasma; l-C16:0 PAF final 10^-8 ~3×10^-8 M; 5 min observation
Protocol: Inhibitory effect in vitro against PAF-induced blood platelet aggregation
Blood samples were drawn from a rabbit and one part by volume of each sample was immediately mixed with 1/9 part of a 3.8% w/v aqueous solution of sodium citrate. The samples were centrifuged at 150×G at room temperature for 15 minutes to obtain a platelet rich plasma (PRP) fraction from the upper layer. The remains were further centrifuged at 1,000×G for 15 minutes to obtain a platelet poor plasma (PPP) fraction from the upper layer. The PRP and PPP fractions were mixed appropriately, to obtain a sample in which the final count of blood platelets was adjusted to be 6×10^5 per ul. According to the method reported by Born et al. [G. V. R. Born et al.: J. Physiol. 62, 67-68 (1962)], blood platelet aggregation was determined by an increase in light transmission measured using an aggregometer. 3 ul of a solution of the test compound in dimethyl sulfoxide were added to 272 ul of PRP, and, after 1 minute, 25 ul of a physiological saline solution containing l-c16:0 PAF (at a final concentration of 10^-8 ~3×10^-8 M) were added. […] At the end of this value and the value of PAF-induced aggregation which was observed when dimethyl sulfoxide only was used without the addition of any test compound. IC50 values were calculated from the dose-response curve.

For COc1ccc(/C(=C/C(=O)N2CCN(C(=O)c3cc(OC)c(OC)c(OC)c3)CC2)c2ccc(Cl)cc2Cl)cc1 [Example 78, 1-[(Z)-3-(4-Methoxyphenyl)-3-(2,4-dichlorophenyl)acryloyl]-4-(3,4,5-trimethoxybenzoyl)piperazine], the ED50 (PAF-induced hypotension) was 0.0073 mg/kg and the IC50 [1] was 29 nM.
Work on COc1cc(C(=O)N2CCN(C(=O)/C=C(\c3ccccc3)c3ccc4ccccc4c3)CC2)cc(OC)c1OC [Example 48, 1-[(E)-3-(2-Naphthyl)-3-phenylacryloyl]-4-(3,4,5-trimethoxybenzoyl)piperazine] yielded an ED50 (PAF-induced hypotension) of 0.012 mg/kg.
In the case of COc1ccc(/C(=C\C(=O)N2CCN(C(=O)c3cc(OC)c(OC)c(OC)c3)CC2)c2ccc(C)cc2)cc1OC [Example 36, 1-[(Z)-3-(3,4-Dimethoxyphenyl)-3-(4-methylphenyl)acryloyl]-4-(3,4,5-trimethoxybenzoyl)piperazine], the ED50 (PAF-induced hypotension) is reported as 0.039 mg/kg and the IC50 [1] is reported as 220 nM.
With CCCOc1ccc(/C(=C/C(=O)N2CCN(C(=O)c3cc(OC)c(OC)c(OC)c3)CC2)c2ccccc2)cc1 [Example 53, 1-[(E)-3-Phenyl-3-(4-propoxyphenyl)acryloyl]-4-(3,4,5-trimethoxybenzoyl)piperazine] the ED50 (PAF-induced hypotension) was 0.0074 mg/kg and the IC50 [1] was 52 nM.
For COc1ccc(/C(=C/C(=O)N2CCN(C(=O)c3cc(OC)c(OC)c(OC)c3)CC2)c2cccc(C(F)(F)F)c2)cc1OC [Example 33, 1-[(E)-3-(3,4-Dimethoxyphenyl)-3-(3-trifluoromethylphenyl)acryloyl]-4-(3,4,5-trimethoxybenzoyl)piperazine], the ED50 (PAF-induced hypotension) was 0.0078 mg/kg and the IC50 [1] was 43 nM.
COc1ccc(/C(=C/C(=O)N2CCN(C(=O)c3cc(OC)c(OC)c(OC)c3)CC2)c2cc(Cl)ccc2Cl)cc1 [Example 80, 1-[(Z)-3-(4-Methoxyphenyl)-3-(2,5-dichlorophenyl)acryloyl]-4-(3,4,5-trimethoxybenzoyl)piperazine] was tested, and the ED50 (PAF-induced hypotension) was 0.0065 mg/kg and the IC50 [1] was 28 nM.
In the case of COc1ccc(/C(=C/C(=O)N2CCN(C(=O)c3cc(OC)c(OC)c(OC)c3)CC2)c2c(Cl)cccc2Cl)cc1 [Example 79, 1-[(Z)-3-(4-Methoxyphenyl)-3-(2,6-dichlorophenyl)acryloyl]-4-(3,4,5-trimethoxybenzoyl)piperazine], the ED50 (PAF-induced hypotension) is reported as 0.0066 mg/kg.
Molecule COc1cc(C(=O)N2CCN(C(=O)C=C(c3ccc(Cl)cc3)c3ccc(Cl)cc3)CC2)cc(OC)c1OC [Example 3, 1-[3,3-Bis(4-chlorophenyl)acryloyl]-4-(3,4,5-trimethoxybenzoyl)piperazine] has an ED50 (PAF-induced hypotension) of 0.048 mg/kg and an IC50 [1] of 220 nM.
COc1ccc(/C(=C\C(=O)N2CCN(C(=O)c3cc(OC)c(OC)c(OC)c3)CC2)c2cccc(C(F)(F)F)c2)cc1OC [Example 34, 1-[(Z)-3-(3,4-Dimethoxyphenyl)-3-(3-trifluoromethylphenyl)acryloyl]-4-(3,4,5-trimethoxybenzoyl)piperazine] was tested, and the ED50 (PAF-induced hypotension) was 0.021 mg/kg.
For COc1ccc(/C(=C/C(=O)N2CCN(C(=O)c3cc(OC)c(OC)c(OC)c3)CC2)c2cccc(F)c2)cc1 [Example 74, 1-[(Z)-3-(4-Methoxyphenyl)-3-(3-fluorophenyl)acryloyl]-4-(3,4,5-trimethoxybenzoyl)piperazine], the ED50 (PAF-induced hypotension) was 0.0055 mg/kg and the IC50 [1] was 58 nM.
COc1ccc(/C(=C\C(=O)N2CCN(C(=O)c3cc(OC)c(OC)c(OC)c3)CC2)c2ccc(OC)c(OC)c2)cc1 [Example 29, 1-[(E)-3-(3,4-Dimethoxyphenyl)-3-(4-methoxyphenyl)acryloyl]-4-(3,4,5-trimethoxybenzoyl)piperazine] gave an ED50 (PAF-induced hypotension) of 0.048 mg/kg and an IC50 [1] of 180 nM.
In the case of COc1cc(C(=O)N2CCN(C(=O)/C=C(/c3cccc(C)c3)c3ccc(Cl)c(Cl)c3)CC2)cc(OC)c1OC [Example 37, 1-[(Z)-3-(3,4-Dichlorophenyl)-3-(3-methylphenyl)acryloyl]-4-(3,4,5-trimethoxybenzoyl)piperazine], the IC50 [1] is reported as 110 nM.
Molecule COc1cc(C(=O)N2CCN(C(=O)C=C(c3ccc(F)cc3)c3ccc(F)cc3)CC2)cc(OC)c1OC [Example 25, 1[Bis(4-fluorophenyl)acryloyl]-4-(3,4,5-trimethoxybenzoyl)piperazine] has an ED50 (PAF-induced hypotension) of 0.052 mg/kg.
COc1ccc(/C(=C\C(=O)N2CCN(C(=O)c3cc(OC)c(OC)c(OC)c3)CC2)c2cccc(Cl)c2)cc1OC [Example 18, 1-[(E)-3-(3-Chlorophenyl)-3-(3,4-dimethoxyphenyl)acryloyl]-4-(3,4,5-trimethoxybenzoyl)piperazine] was tested, and the ED50 (PAF-induced hypotension) was 0.026 mg/kg.
In the case of CCCOc1cccc(/C(=C/C(=O)N2CCN(C(=O)c3cc(OC)c(OC)c(OC)c3)CC2)c2cccc(Cl)c2)c1 [Example 70, 1-[(Z)-3-(3-Propoxyphenyl)-3-(3-chlorophenyl)acryloyl]-4-(3,4,5-trimethoxybenzoyl)piperazine], the ED50 (PAF-induced hypotension) is reported as 0.0033 mg/kg and the IC50 [1] is reported as 30 nM.
For CCCOc1ccc(/C(=C/C(=O)N2CCN(C(=O)c3cc(OC)c(OC)c(OC)c3)CC2)c2cccc(Cl)c2)cc1 [Example 71, 1-[(Z)-3-(4-Propoxyphenyl)-3-(3-chlorophenyl)acryloyl]-4-(3,4,5-trimethoxybenzoyl)piperazine], the ED50 (PAF-induced hypotension) was 0.0074 mg/kg and the IC50 [1] was 38 nM.
COc1ccc(/C(=C/C(=O)N2CCN(C(=O)c3cc(OC)c(OC)c(OC)c3)CC2)c2ccc(OC)c(OC)c2)cc1 [Example 30, 1-[(Z)-3-(3,4-Dimethoxyphenyl)-3-(4-methoxyphenyl)acryloyl]-4-(3,4,5-trimethoxybenzoyl)piperazine] gave an ED50 (PAF-induced hypotension) of 0.044 mg/kg and an IC50 [1] of 150 nM.
With CCOc1ccc(/C(=C/C(=O)N2CCN(C(=O)c3cc(OC)c(OC)c(OC)c3)CC2)c2cccc(F)c2)cc1 [Example 88, 1-[(Z)-3-(4-Ethoxyphenyl)-3-(3-fluorophenyl)acryloyl]-4-(3,4,5-trimethoxybenzoyl)piperazine] the ED50 (PAF-induced hypotension) was 0.092 mg/kg.
With CCc1ccc(/C(=C/C(=O)N2CCN(C(=O)c3cc(OC)c(OC)c(OC)c3)CC2)c2cc(Cl)cc(Cl)c2)cc1 [Example 86, 1-[(Z)-3-(4-Ethylphenyl)-3-(3,5-dichlorophenyl)acryloyl]-4-(3,4,5-trimethoxybenzoyl)piperazine] the ED50 (PAF-induced hypotension) was 0.015 mg/kg.
In the case of COc1ccc(/C(=C\C(=O)N2CCN(C(=O)c3cc(OC)c(OC)c(OC)c3)CC2)c2ccccc2)cc1OC [Example 8, 1-[(Z)-3-(3,4-Dimethoxyphenyl)cinnamoyl]-4-(3,4,5-trimethoxybenzoyl)piperazine], the ED50 (PAF-induced hypotension) is reported as 0.058 mg/kg.
With COc1ccc(/C(=C/C(=O)N2CCN(C(=O)c3cc(OC)c(OC)c(OC)c3)CC2)c2cc(C)cc(C)c2)cc1 [Example 82, 1-[(Z)-3-(4-Methoxyphenyl)-3-(3,5-dimethylphenyl)acryloyl]-4-(3,4,5-trimethoxybenzoyl)piperazine] the ED50 (PAF-induced hypotension) was 0.013 mg/kg and the IC50 [1] was 9.9 nM.
COc1ccc(/C(=C/C(=O)N2CCN(C(=O)c3cc(OC)c(OC)c(OC)c3)CC2)c2cccc(Br)c2)cc1 [Example 73, 1-[(Z)-3-(4-Methoxyphenyl)-3-(3-bromophenyl)acryloyl]-4-(3,4,5-trimethoxybenzoyl)piperazine] showed an ED50 (PAF-induced hypotension) of 0.0084 mg/kg and an IC50 [1] of 86 nM.
In the case of COc1ccc(C(=CC(=O)N2CCN(C(=O)c3cc(OC)c(OC)c(OC)c3)CC2)c2ccc(OC)c(OC)c2)cc1OC [Example 28, 1-[Bis(3,4-dimethoxyphenyl)acryloyl]-4-(3,4,5-trimethoxybenzoyl)piperazine], the ED50 (PAF-induced hypotension) is reported as 0.039 mg/kg and the IC50 [1] is reported as 230 nM.
Work on COc1ccc(/C(=C\C(=O)N2CCN(C(=O)c3cc(OC)c(OC)c(OC)c3)CC2)c2ccc(Cl)cc2)cc1OC [Example 16, 1-[(Z)-3-(4-Chlorophenyl)-3-(3,4-dimethoxyphenyl)acryloyl]-4-(3,4,5-trimethoxybenzoyl)piperazine] yielded an ED50 (PAF-induced hypotension) of 0.074 mg/kg.
In the case of COc1cc(C(=O)N2CCN(C(=O)C=C(c3cccs3)c3cccs3)CC2)cc(OC)c1OC [Example 4, 1-[3,3-Bis(2-thienyl)acryloyl]-4-(3,4,5-trimethoxybenzoyl)piperazine], the ED50 (PAF-induced hypotension) is reported as 0.074 mg/kg.
With COc1ccc(/C(=C/C(=O)N2CCN(C(=O)c3cc(OC)c(OC)c(OC)c3)CC2)c2cccc(C)c2)cc1OC [Example 39, 1-[(E)-3-(3,4-Dimethoxyphenyl)-3-(3-methylphenyl)acryloyl]-4-(3,4,5-trimethoxybenzoyl)piperazine] the ED50 (PAF-induced hypotension) was 0.008 mg/kg.
In the case of COc1ccc(/C(=C\C(=O)N2CCN(C(=O)c3cc(OC)c(OC)c(OC)c3)CC2)c2cccc(C)c2)cc1OC [Example 40, 1-[(Z)-3-(3,4-Dimethoxyphenyl)-3-(3-methylphenyl)acryloyl]-4-(3,4,5-trimethoxybenzoyl)piperazine], the IC50 [1] is reported as 110 nM.
